The record followed here is patent US20240199587A1, “HETEROCYCLIC COMPOUNDS” (Hoffmann-La Roche Inc., priority 2021, published 2024).

This assay deals with T1, MAGL (Homo sapiens, UniProt Q99685).
T1 sequence (Q99685 1-303): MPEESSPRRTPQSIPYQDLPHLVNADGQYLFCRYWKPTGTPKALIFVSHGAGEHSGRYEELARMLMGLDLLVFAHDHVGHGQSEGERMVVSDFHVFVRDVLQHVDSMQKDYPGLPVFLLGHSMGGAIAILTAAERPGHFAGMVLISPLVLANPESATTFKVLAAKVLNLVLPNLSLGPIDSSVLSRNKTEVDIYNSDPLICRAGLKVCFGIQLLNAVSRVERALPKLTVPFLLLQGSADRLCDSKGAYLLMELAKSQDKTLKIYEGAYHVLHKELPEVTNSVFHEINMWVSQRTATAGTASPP
The assay can be described thus: 2-AG assay (MAGL inhibitory activity, hydrolysis of 2-arachidonoylglycerol to arachidonic acid followed by mass spectrometry). It is filed as biochemical. The note with it: 8 μM 2-arachidonoylglycerol, 15 min pre-incubation, 30 min incubation at RT, RapidFire MS readout. In short, it runs like this: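 Human MAGL ([…] final) pre-incubated 15 min at RT with compound in 50 mM TRIS, 1 mM EDTA, 0.01% Tween-20, 2.5% DMSO; 8 μM 2-AG then added for 30 min at RT. Acetonitrile quench with d8-arachidonic acid; arachidonic acid measured by RapidFire SPE–MS/MS, activity from arachidonic acid/d8 ratio.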
As usually defined, the IC50 is the concentration that inhibits the measured activity by half. A high value points to lower potency. Take `N#Cc1ccc(S(=O)(=O)N2CC3(CN(C(=O)N4CC5(CC(n6cnc(C7CC7)n6)C5)C4)C3)C2)cc1` [Example 308]: the IC50 turned out to be 138 nM. That is a sub-micromolar value.
In the case of `COc1ncccc1S(=O)(=O)N1CC2(CN(C(=O)N3CC4(CC(n5cnc(C6CC6)n5)C4)C3)C2)C1` [Example 309, [6-(3-cyclopropyl-1,2,4-triazol-1-yl)-2-azaspiro[3.3]heptan-2-yl]-[2-[(2-methoxy-3-pyridyl)sulfonyl]-2,6-diazaspiro[3.3]heptan-6-yl]methanone] it was 148 nM; in that of `Nc1ncc(S(=O)(=O)N2CC3(CN(C(=O)N4CC5(CC(n6cnc(C7CC7)n6)C5)C4)C3)C2)cn1` [Example 310, [2-(2-aminopyrimidin-5-yl)sulfonyl-2,6-diazaspiro[3.3]heptan-6-yl]-[6-(3-cyclopropyl-1,2,4-triazol-1-yl)-2-azaspiro[3.3]heptan-2-yl]methanone], 154 nM.
The same measure for `CNC(=O)C(c1ccccc1)N1CC2(CN(C(=O)N3CC4(CC(n5cnc(C6CC6)n5)C4)C3)C2)C1` (centres unmarked) [Example 311, 2-[2-[6-(3-cyclopropyl-1,2,4-triazol-1-yl)-2-azaspiro[3.3]heptane-2-carbonyl]-2,6-diazaspiro[3.3]heptan-6-yl]-N-methyl-2-phenyl-acetamide]: 176 nM; for `O=C(NCC(F)(F)F)c1cnn(C2CN(C(=O)N3CC4(CC(n5cnc(C6CC6)n5)C4)C3)C2)c1` [Example 312, 1-[1-[6-(3-cyclopropyl-1,2,4-triazol-1-yl)-2-azaspiro[3.3]heptane-2-carbonyl]azetidin-3-yl]-N-(2,2,2-trifluoroethyl)pyrazole-4-carboxamide]: 202 nM.
For `O=C(O)c1ccccc1CN1CC2(C1)CN(C(=O)N1CC3(CC(n4cnc(C5CC5)n4)C3)C1)C2` [Example 313, 2-[[2-[6-(3-cyclopropyl-1,2,4-triazol-1-yl)-2-azaspiro[3.3]heptane-2-carbonyl]-2,6-diazaspiro[3.3]heptan-6-yl]methyl]benzoic acid], the half-maximal inhibitory concentration (IC50) is 206 nM.
Compound `CN(C)S(=O)(=O)N1CC2(CN(C(=O)N3CC4(CC(n5cnc(C6CC6)n5)C4)C3)C2)C1` [Example 314, 6-[6-(3-cyclopropyl-1,2,4-triazol-1-yl)-2-azaspiro[3.3]heptane-2-carbonyl]-N,N-dimethyl-2,6-diazaspiro[3.3]heptane-2-sulfonamide] returned a concentration for half-maximal inhibition (IC50) of 229 nM.
Consider `Cc1cn(C2CC3(C2)CN(C(=O)N2CC(OCc4ccc(S(F)(F)(F)(F)F)cc4)C2)C3)cn1` [Example 315, [6-(4-methylimidazol-1-yl)-2-azaspiro[3.3]heptan-2-yl]-[3-[[4-(pentafluoro-26-sulfanyl)phenyl]methoxy]azetidin-1-yl]methanone], for which the half-maximal inhibitory concentration (IC50) stood at 240 nM.
As to `O=C(N1CC(Oc2nccc(C(F)(F)F)n2)C1)N1CC2(CC(n3cnc(C4CC4)n3)C2)C1` [Example 316, [6-(3-cyclopropyl-1,2,4-triazol-1-yl)-2-azaspiro[3.3]heptan-2-yl]-[3-[4-(trifluoromethyl)pyrimidin-2-yl]oxyazetidin-1-yl]methanone], the half-maximal inhibitory concentration (IC50) came out at 248 nM.
In the case of `O=C(N1CC2(CC(n3cnc(C4CC4)n3)C2)C1)N1CC2(C1)CN(S(=O)(=O)c1cccnc1)C2` [Example 317, [6-(3-cyclopropyl-1,2,4-triazol-1-yl)-2-azaspiro[3.3]heptan-2-yl]-[2-(3-pyridylsulfonyl)-2,6-diazaspiro[3.3]heptan-6-yl]methanone] it was 274 nM; in that of `O=C(N1CC2(CC(n3cnc(C4CC4)n3)C2)C1)N1CC2(C1)CN(S(=O)(=O)N1CCOCC1)C2` [Example 318, [6-(3-cyclopropyl-1,2,4-triazol-1-yl)-2-azaspiro[3.3]heptan-2-yl]-(2-morpholinosulfonyl-2,6-diazaspiro[3.3]heptan-6-yl)methanone], 291 nM; in that of `NS(=O)(=O)c1ccc(F)c(CC2CCN(C(=O)N3CC4(CC(n5cnc(C6CC6)n5)C4)C3)CC2)c1` [Example 319], 301 nM.
Regarding `CCCS(=O)(=O)N1CC2(CN(C(=O)N3CC4(CC(n5cnc(C6CC6)n5)C4)C3)C2)C1` [Example 320, [6-(3-cyclopropyl-1,2,4-triazol-1-yl)-2-azaspiro[3.3]heptan-2-yl]-(2-propylsulfonyl-2,6-diazaspiro[3.3]heptan-6-yl)methanone], the concentration for half-maximal inhibition (IC50) is 314 nM.
For the compound `O=C(N1CCC(NS(=O)(=O)c2ccc(C(F)(F)F)cc2)CC1)N1CC2(CC(n3cnc(C4CC4)n3)C2)C1` [Example 321, N-[1-[6-(3-cyclopropyl-1,2,4-triazol-1-yl)-2-azaspiro[3.3]heptane-2-carbonyl]-4-piperidyl]-4-(trifluoromethyl) benzenesulfonamide], the IC50 turned out to be 331 nM.
In turn, `O=C(N1CC(Oc2nnccc2C(F)(F)F)C1)N1CC2(CC(n3cnc(C4CC4)n3)C2)C1` [Example 322, [6-(3-cyclopropyl-1,2,4-triazol-1-yl)-2-azaspiro[3.3]heptan-2-yl]-[3-[4-(trifluoromethyl)pyridazin-3-yl]oxyazetidin-1-yl]methanone] returned a half-inhibitory concentration (IC50) of 340 nM.
As for `NC(=O)c1ccccc1S(=O)(=O)N1CC2(CN(C(=O)N3CC4(CC(n5cnc(C6CC6)n5)C4)C3)C2)C1` [Example 323, 2-[[6-[6-(3-cyclopropyl-1,2,4-triazol-1-yl)-2-azaspiro[3.3]heptane-2-carbonyl]-2,6-diazaspiro[3.3]heptan-2-yl]sulfonyl]benzamide], the IC50 worked out at 365 nM.
In the case of `O=C(O)c1ccc(S(=O)(=O)N2CC3(CN(C(=O)N4CC5(CC(n6cnc(C7CC7)n6)C5)C4)C3)C2)cc1` [Example 324] it was 402 nM.
The compound `O=C(N1CCC(CNS(=O)(=O)c2ccccc2)CC1)N1CC2(CC(n3cnc(C4CC4)n3)C2)C1` [Example 325, N-[[1-[6-(3-cyclopropyl-1,2,4-triazol-1-yl)-2-azaspiro[3.3]heptane-2-carbonyl]-4-piperidyl]methyl]benzene-sulfonamide] had an IC50 of 482 nM.
In the case of `NC(=O)[C@@H](c1ccc(F)cc1)N1CCN(C(=O)N2CC3(CC(n4cnc(C5CC5)n4)C3)C2)CC1` [Example 326, (2R)-2-[4-[6-(3-cyclopropyl-1,2,4-triazol-1-yl)-2-azaspiro[3.3]heptane-2-carbonyl]piperazin-1-yl]-2-(4-fluorophenyl)acetamide] it was 583 nM; in that of `O=C(O)c1ccc(F)c(S(=O)(=O)N2CC3(CN(C(=O)N4CC5(CC(n6cnc(C7CC7)n6)C5)C4)C3)C2)c1` [Example 327], 611 nM; in that of `CCc1ncnn1C1CC2(C1)CN(C(=O)N1CC3(CC(Cc4ccc(F)cc4F)C3)C1)C2` [Example 328, [6-[(2,4-difluorophenyl)methyl]-2-azaspiro[3.3]heptan-2-yl]-[6-(5-ethyl-1,2,4-triazol-1-yl)-2-azaspiro[3.3]heptan-2-yl]methanone], 673 nM.
The same measure for `O=C(N1CC2(CC(n3cnc(C4CC4)n3)C2)C1)N1CC2(C1)CN(S(=O)(=O)CC(F)(F)F)C2` [Example 329, [6-(3-cyclopropyl-1,2,4-triazol-1-yl)-2-azaspiro[3.3]heptan-2-yl]-[2-(2,2,2-trifluoroethylsulfonyl)-2,6-diazaspiro[3.3]heptan-6-yl]methanone]: 743 nM; for `CNC(=O)[C@H](c1ccc(F)cc1)N1CCN(C(=O)N2CC3(CC(n4cnc(C5CC5)n4)C3)C2)CC1` [Example 330, (2S)-2-[4-[6-(3-cyclopropyl-1,2,4-triazol-1-yl)-2-azaspiro[3.3]heptane-2-carbonyl]piperazin-1-yl]-2-(4-fluorophenyl)-N-methyl-acetamide]: 744 nM; for `Cn1cc(S(=O)(=O)N2CC3(CN(C(=O)N4CC5(CC(n6cnc(C7CC7)n6)C5)C4)C3)C2)cn1` [Example 331, [6-(3-cyclopropyl-1,2,4-triazol-1-yl)-2-azaspiro[3.3]heptan-2-yl]-[2-(1-methylpyrazol-4-yl)sulfonyl-2,6-diazaspiro[3.3]heptan-6-yl]methanone]: 797 nM.
`NC(=O)C(c1ccc(F)cc1)N1CCN(C(=O)N2CC3(CC(n4cnc(C5CC5)n4)C3)C2)CC1` (centres unmarked) [Example 332, 2-[4-[6-(3-cyclopropyl-1,2,4-triazol-1-yl)-2-azaspiro[3.3]heptane-2-carbonyl]piperazin-1-yl]-2-(4-fluorophenyl)acetamide] gave an IC50 of 904 nM.
In the case of `O=C(N1CC(c2nnc(CC3CC3)[nH]2)C1)N1CC2(CC(n3cnc(C4CC4)n3)C2)C1` [Example 333, [3-[5-(cyclopropylmethyl)-4H-1,2,4-triazol-3-yl]azetidin-1-yl]-[6-(3-cyclopropyl-1,2,4-triazol-1-yl)-2-azaspiro[3.3]heptan-2-yl]methanone] it was 949 nM; in that of `CNC(=O)c1ccccc1S(=O)(=O)N1CC2(CN(C(=O)N3CC4(CC(n5cnc(C6CC6)n5)C4)C3)C2)C1` [Example 334], 993 nM.
Take `CNC(=O)[C@@H](c1ccc(F)cc1)N1CCN(C(=O)N2CC3(CC(n4cnc(C5CC5)n4)C3)C2)CC1` [Example 335, (2R)-2-[4-[6-(3-cyclopropyl-1,2,4-triazol-1-yl)-2-azaspiro[3.3]heptane-2-carbonyl]piperazin-1-yl]-2-(4-fluorophenyl)-N-methyl-acetamide]: it took 1400 nM to reach half-maximal inhibition (IC50).
`O=C(N1CCC(NS(=O)(=O)c2ccc(F)cc2)CC1)N1CC2(CC(n3cnc(C4CC4)n3)C2)C1` [Example 336, N-[1-[6-(3-cyclopropyl-1,2,4-triazol-1-yl)-2-azaspiro[3.3]heptane-2-carbonyl]-4-piperidyl]-4-fluoro-benzenesulfonamide] registered an IC50 of 1440 nM.
